In patent US20190029252A1, “Use of Herbicide-tolerant Protein” (BEIJING DABEINONG TECHNOLOGY GROUP CO., LTD., priority 2016, published 2019):

Legend:
Assay type in all cases: in vivo
[1] = system: Zm cytoplasmic ALT-3-02 maize plants; experiment: Tribenuron-methyl tolerance of maize plants, damage degree after spraying; conditions: 72 g ai/ha (4-fold field concentration)
Description: (§1) The damage degree caused by the herbicide was measured for each plant according to the plant growth status 3 days after spraying (3 DAT), 7 days after spraying (7 DAT), 14 days after spraying (14 DAT) and 21 days after spraying (21 DAT), respectively: considering a growth status equivalent to that of the untreated plants as having a damage degree of 0%; considering conditions of leaves being partially chlorotic and yellow but substantially not affecting the plant normal growth as having a damage degree of 50%; and considering the whole plant being purple and dying as having a damage degree of 100%. There were 2 strains in Zm cytoplasmic ALT-1-02 maize plants in total (S13 and S14), 2 strains in Zm chloroplastic ALT-1-02 maize plants in total (S15 and S16), 2 strains in Zm cytoplasmic ALT-2-02 maize plants in total (S17 and S18), 2 strains in Zm chloroplastic ALT-2-02 maize plants in total (S19 and S20), 2 strains in Zm cytoplasmic ALT-3-02 maize plants in total (S21 and S22), 2 strains in Zm chloroplastic ALT-3-02 maize plants in total (S23 and S24), and 1 strain in wild-type maize plants (CK2) in total; and 10-15 plants were selected from each strain and tested.

[2] = system: Zm chloroplastic ALT-3-02 maize plants; experiment: as above; conditions: 72 g ai/ha (4-fold field concentration)
Description: as §1

[3] = system: Zm chloroplastic ALT-1-02 maize plants; experiment: as above; conditions: 72 g ai/ha (4-fold field concentration)
Description: as §1

[4] = system: Zm chloroplastic ALT-2-02 maize plants; experiment: as above; conditions: 72 g ai/ha (4-fold field concentration)
Description: as §1

[5] = system: At cytoplasmic ALT-2-01 T1 plants; experiment: Herbicide tolerance of Arabidopsis thaliana T1 plants, sprayed, resistance classes counted 14 days after spraying; conditions: sprayed at 1-fold field concentration
Excerpt: (§2) T1 transformants were initially selected from the background of untransformed seeds using a glufosinate selection scheme. About 40000 T1 seeds were screened, and 380 T1 positive transformants (PAT gene) were identified with a transformation efficiency of about 0.95%. The plants that were transformed with the recombinant expression vector DBN100632 were Arabidopsis thaliana plants having an ALT-1-01 nucleotide sequence located in the cytoplasm introduced (At cytoplasmic ALT-1-01), and the plants that were transformed with the recombinant expression vector DBN100631 were Arabidopsis thaliana plants having an ALT-1-01 nucleotide sequence located in the chloroplast introduced (At chloroplastic ALT-1-01); the plants that were transformed with the recombinant expression vector DBN100634 were Arabidopsis thaliana plants having an ALT-2-01 nucleotide sequence located in the cytoplasm introduced (At cytoplasmic ALT-2-01), and the plants that were transformed with the recombinant expression vector DBN100633 were Arabidopsis thaliana plants having an ALT-2-01 nucleotide sequence located in the chloroplast introduced (At chloroplastic ALT-2-01); and the plants that were transformed with the recombinant expression vector DBN100636 were Arabidopsis thaliana plants having an ALT-3-01 nucleotide sequence located in the cytoplasm introduced (At cytoplasmic ALT-3-01), and the plants that were transformed with the recombinant expression vector DBN100635 were Arabidopsis thaliana plants having an ALT-3-01 nucleotide sequence located in the chloroplast introduced (At chloroplastic ALT-3-01).
(§3) Plants were counted for the resistance situations 14 days after spraying: those having a consistent growth status with the blank solvent (water) group after 14 days were classified as highly resistant plants, those having a bolting height less than ½ of that of the blank solvent (water) group after 14 days were classified as moderately resistant plants, those still not capable of bolting after 14 days were classified as poorly resistant plants, and those dead after 14 days were classified as non-resistant plants. Since each Arabidopsis thaliana T1 plant was an independent transformation event, a significant difference in individual T1 responses could be expected at a given dose.
as §3, with “situation” for “situations”

[6] = system: At cytoplasmic ALT-3-01 T1 plants; experiment: as above; conditions: sprayed at 1-fold field concentration
Excerpt: as §2, §3
as §3, with “situation” for “situations”

[7] = system: At cytoplasmic ALT-1-01 T1 plants; experiment: as above; conditions: sprayed at 1-fold field concentration
Excerpt: as §2, §3
as §3, with “situation” for “situations”

[8] = system: At chloroplastic ALT-3-01 T1 plants; experiment: as above; conditions: sprayed at 1-fold field concentration
Excerpt: as §2, §3
as §3, with “situation” for “situations”

[9] = system: At chloroplastic ALT-1-01 T1 plants; experiment: as above; conditions: sprayed at 1-fold field concentration
Excerpt: as §2, §3
as §3, with “situation” for “situations”

[10] = system: At chloroplastic ALT-2-01 T1 plants; experiment: as above; conditions: sprayed at 1-fold field concentration
Excerpt: as §2, §3
as §3, with “situation” for “situations”

[11] = maize strain S21 (Zm cytoplasmic ALT-3-02)
[12] = maize strain S22 (Zm cytoplasmic ALT-3-02)
[13] = maize strain S23 (Zm chloroplastic ALT-3-02)
[14] = maize strain S24 (Zm chloroplastic ALT-3-02)
[15] = maize strain S15 (Zm chloroplastic ALT-1-02)
[16] = maize strain S16 (Zm chloroplastic ALT-1-02)
[17] = maize strain S19 (Zm chloroplastic ALT-2-02)
[18] = maize strain S20 (Zm chloroplastic ALT-2-02)

**Q.** Which “Average damage % 3DAT” value [1, 11] does the source give for `COC(=O)c1ccccc1S(=O)(=O)NC(=O)N(C)c1nc(C)nc(OC)n1` [tribenuron-methyl, methyl 2-[N-(4-methoxy-6-methyl-1,3,5-triazin-2-yl)-N-methylaminoformamidosulfonyl]benzoate] here?
**A.** The value was 3%.

**Q.** What about the “Average damage % 7DAT” value [1, 11] of the same molecule?
**A.** The value was 0%.

**Q.** And the “Average damage % 14DAT” value [1, 11]?
**A.** The value was 0%.

**Q.** What about the “Average damage % 21DAT” value [1, 11] of the same molecule?
**A.** Its value is 0%.

**Q.** What about the “Average damage % 3DAT” value [1, 12] of the same molecule?
**A.** The value was 5%.

**Q.** And the “Average damage % 7DAT” value [1, 12]?
**A.** The value was 0%.

**Q.** What about the “Average damage % 14DAT” value [1, 12] of the same molecule?
**A.** The value was 0%.

**Q.** And the “Average damage % 21DAT” value [1, 12]?
**A.** Its value is 0%.

**Q.** And the “Average damage % 3DAT” value [2, 13]?
**A.** The value was 0%.

**Q.** And the “Average damage % 7DAT” value [2, 13]?
**A.** The value was 0%.

**Q.** And the “Average damage % 14DAT” value [2, 13]?
**A.** The value was 0%.

**Q.** What about the “Average damage % 21DAT” value [2, 13] of the same molecule?
**A.** Its value is 0%.

**Q.** What about the “Average damage % 3DAT” value [2, 14] of the same molecule?
**A.** The value was 0%.

**Q.** And the “Average damage % 7DAT” value [2, 14]?
**A.** The value was 0%.

**Q.** And the “Average damage % 14DAT” value [2, 14]?
**A.** Its value is 0%.

**Q.** What about the “Average damage % 21DAT” value [2, 14] of the same molecule?
**A.** The value was 0%.

**Q.** And the “Average damage % 3DAT” value [3, 15]?
**A.** Its value is 0%.

**Q.** What about the “Average damage % 7DAT” value [3, 15] of the same molecule?
**A.** The value was 0%.

**Q.** And the “Average damage % 14DAT” value [3, 15]?
**A.** The value was 0%.

**Q.** What about the “Average damage % 21DAT” value [3, 15] of the same molecule?
**A.** Its value is 0%.

**Q.** What about the “Average damage % 3DAT” value [3, 16] of the same molecule?
**A.** Its value is 0%.

**Q.** What about the “Average damage % 7DAT” value [3, 16] of the same molecule?
**A.** Its value is 0%.

**Q.** What about the “Average damage % 14DAT” value [3, 16] of the same molecule?
**A.** Its value is 0%.

**Q.** And the “Average damage % 21DAT” value [3, 16]?
**A.** Its value is 0%.

**Q.** And the “Average damage % 3DAT” value [4, 17]?
**A.** Its value is 0%.

**Q.** And the “Average damage % 7DAT” value [4, 17]?
**A.** Its value is 0%.

**Q.** And the “Average damage % 14DAT” value [4, 17]?
**A.** Its value is 0%.

**Q.** And the “Average damage % 21DAT” value [4, 17]?
**A.** Its value is 0%.

**Q.** And the “Average damage % 3DAT” value [4, 18]?
**A.** The value was 0%.

**Q.** What about the “Average damage % 7DAT” value [4, 18] of the same molecule?
**A.** Its value is 0%.

**Q.** What about the “Average damage % 14DAT” value [4, 18] of the same molecule?
**A.** Its value is 0%.

**Q.** What about the “Average damage % 21DAT” value [4, 18] of the same molecule?
**A.** Its value is 0%.

**Q.** And the “Highly resistant (number of plants)” value [5]?
**A.** The value was 25.

**Q.** And the “Moderately resistant (number of plants)” value [5]?
**A.** Its value is 1.

**Q.** And the “Non-resistant (number of plants)” value [5]?
**A.** The value was 3.

**Q.** And the “Poorly resistant (number of plants)” value [5]?
**A.** Its value is 1.

**Q.** What about the “Highly resistant (number of plants)” value [6] of the same molecule?
**A.** The value was 22.

**Q.** And the “Moderately resistant (number of plants)” value [6]?
**A.** Its value is 1.

**Q.** And the “Non-resistant (number of plants)” value [6]?
**A.** The value was 3.

**Q.** And the “Poorly resistant (number of plants)” value [6]?
**A.** Its value is 1.

**Q.** And the “Highly resistant (number of plants)” value [7]?
**A.** Its value is 24.

**Q.** What about the “Moderately resistant (number of plants)” value [7] of the same molecule?
**A.** Its value is 2.

**Q.** What about the “Non-resistant (number of plants)” value [7] of the same molecule?
**A.** The value was 1.

**Q.** And the “Poorly resistant (number of plants)” value [7]?
**A.** The value was 1.

**Q.** And the “Highly resistant (number of plants)” value [8]?
**A.** The value was 27.

**Q.** And the “Moderately resistant (number of plants)” value [8]?
**A.** The value was 0.

**Q.** And the “Non-resistant (number of plants)” value [8]?
**A.** Its value is 2.

**Q.** And the “Poorly resistant (number of plants)” value [8]?
**A.** The value was 0.

**Q.** What about the “Highly resistant (number of plants)” value [9] of the same molecule?
**A.** The value was 28.

**Q.** And the “Moderately resistant (number of plants)” value [9]?
**A.** Its value is 0.

**Q.** And the “Non-resistant (number of plants)” value [9]?
**A.** The value was 2.

**Q.** And the “Poorly resistant (number of plants)” value [9]?
**A.** Its value is 0.

**Q.** What about the “Highly resistant (number of plants)” value [10] of the same molecule?
**A.** The value was 29.

**Q.** What about the “Moderately resistant (number of plants)” value [10] of the same molecule?
**A.** Its value is 0.

**Q.** What about the “Non-resistant (number of plants)” value [10] of the same molecule?
**A.** The value was 1.

**Q.** What about the “Poorly resistant (number of plants)” value [10] of the same molecule?
**A.** Its value is 1.
